Measurements as given in US7018987B1 (priority 1998, dated 2006).

How the values were obtained:
DU-145 = type: cell-based, Human; settings: DU-145, 48 hours
[1] = tested on: eight bacteria and two fungi tested; experiment: Disk susceptibility testing, whole microbe panel; type: cell-based; settings: at 100 μg/disk, eight bacteria and two fungi
FADU = type: cell-based, Human; settings: FADU, 48 hours
SW1736 = type: cell-based, Human; settings: SW1736, 48 hours
[2] = tested on: P388 lymphocytic leukemia; type: cell-based, Murine; settings: murine P-388 leukemia, 48 hours
Solubility in water = settings: mg per 1 ml water at 25° C.
SK-N-SH = type: cell-based, Human; settings: SK-N-SH, 48 hours
BXPC-3 = type: cell-based, Human; settings: BXPC-3, 48 hours
NCI-H460 = type: cell-based, Human; settings: NCI-H460, 48 hours
SK-Mel-3 = type: cell-based, Human; settings: SK-Mel-3, 48 hours
Neisseria gonorrhoeae = type: cell-based; settings: Neisseria gonorrhoeae, disk susceptibility

Compound | GI50 Prostate DU-145 (DU-145) [µg/mL] | Microbe(s) inhibited [1] | GI50 Pharynx FADU (FADU) [µg/mL] | GI50 Thyroid SW1736 (SW1736) [µg/mL] | ED50 P-388 [2] [µg/mL] | Solubility (Solubility in water) [µg/mL] | GI50 Neuroblast SK-N-SH (SK-N-SH) [µg/mL] | GI50 Pancreas BXPC-3 (BXPC-3) [µg/mL] | GI50 Lung-NSC NCI-H460 (NCI-H460) [µg/mL] | GI50 Melanoma SK-Mel-3 (SK-Mel-3) [µg/mL] | Minimum inhibitory amount per disk (Neisseria gonorrhoeae)
COc1ccc(/C=C\c2cc(OC)c(OC)c(OC)c2)cc1OP(=O)([O-])[O-].[Mg+2] [Compound 5d, Magnesium combretastatin A-4 3-O-phosphate] | 0.01 | * (At 100 μg/disk no inhibition of the eight bacteria and two fungi tested.) | 0.031 | 6.8 | 0.0018 | 7000 | 0.01 | 0.43 | 0.017 | – | –
Adenosine combretastatin A-4 3′-O-phosphate [Compound 5m] | 0.036 | * (At 100 μg/disk no inhibition of the eight bacteria and two fungi tested.) | 0.032 | 0.092 | 0.16 | – | 0.034 | 11.6 | 0.038 | 0.35 | –
Calcium combretastatin A-4 3′-O-phosphate [Compound 5a] | 0.001 | * (At 100 μg/disk no inhibition of the eight bacteria and two fungi tested.) | 0.001 | 0.010 | 0.0011 | – | 0.015 | 0.22 | 0.001 | 0.0036 | –
Cesium combretastatin A-4 3′-O-phosphate [Compound 5b] | 0.0028 | * (At 100 μg/disk no inhibition of the eight bacteria and two fungi tested.) | 0.0023 | 8.4 | 0.001 | >50000 | 0.011 | 0.31 | 0.0032 | 0.0043 | –
Cinchonine combretastatin A-4 3-O-phosphate [Compound 5n] | 0.030 | – | 0.024 | 0.089 | 0.020 | 4000 | – | 1.6 | 0.037 | – | 25–50 μg/disk
Glucosamine combretastatin A-4 3′-O-phosphate [Compound 5o] | 0.026 | * (At 100 μg/disk no inhibition of the eight bacteria and two fungi tested.) | 0.015 | 0.061 | 0.0164 | 15000 | 0.016 | 4.5 | 0.034 | – | –
Imidazole combretastatin A-4 3-O-phosphate [Compound 5g] | 0.001 | * (At 100 μg/disk no inhibition of the eight bacteria and two fungi tested.) | 0.01 | 0.011 | 0.0025 | – | 0.01 | 0.39 | 0.004 | 0.01 | –
Lithium combretastatin A-4 3-O-phosphate [Compound 5c] | 0.0025 | * (At 100 μg/disk no inhibition of the eight bacteria and two fungi tested.) | 0.003 | 0.030 | 0.0012 | – | 0.016 | 0.31 | 0.004 | – | –
Morpholine combretastatin A-4 3′-O-phosphate [Compound 5h] | 0.0024 | * (At 100 μg/disk no inhibition of the eight bacteria and two fungi tested.) | 0.0016 | 0.02 | 0.0023 | – | 0.039 | 0.26 | 0.003 | 0.0042 | –
Piperidine combretastatin A-4 3′-O-phosphate [Compound 5j] | 0.01 | * (At 100 μg/disk no inhibition of the eight bacteria and two fungi tested.) | 0.01 | 0.50 | 0.0029 | 5000 | 0.017 | 0.30 | 0.01 | 0.01 | –
Pyrazole combretastatin A-4 3-O-phosphate [Compound 5k] | 0.01 | * (At 100 μg/disk no inhibition of the eight bacteria and two fungi tested.) | 0.01 | 4.6 | 0.0023 | – | 0.014 | 0.23 | 0.01 | 0.01 | –
Pyridine combretastatin A-4 3′-O-phosphate [Compound 5l] | 0.036 | * (At 100 μg/disk no inhibition of the eight bacteria and two fungi tested.) | 0.032 | 0.01 | <0.001 | 3000 | 0.03 | 11.6 | 0.038 | 0.35 | –
Quinidine combretastatin A-4 3-O-phosphate [Compound 5q] | 0.0036 | – | 0.0033 | 0.11 | 0.0032 | – | – | 0.43 | 0.0039 | – | 6.25–12.5 μg/disk
Quinine combretastatin A-4 3′-O-phosphate [Compound 5p] | 0.0048 | * (At 100 μg/disk no inhibition of the eight bacteria and two fungi tested.) | 0.006 | 7.5 | 0.027 | – | – | 2.2 | 0.0042 | – | –
Zinc combretastatin A-4 3′-O-phosphate [Compound 5f] | 0.0062 | * (At 100 μg/disk no inhibition of the eight bacteria and two fungi tested.) | 0.0070 | 0.059 | 0.0343 | 11000 | 0.024 | 1.1 | 0.0074 | 1.0 | –
